Assay type in all cases: biochemical
The target of assay [1] is T1, human Src enzyme (Homo sapiens, UniProt P12931).
T1 construct: purchased Carna Biosciences, Inc. 08-173
Kind of assay: Src enzyme inhibitory activity (time-resolved fluorometry, biotinylated peptide phosphorylation). To be noted: biotinylated peptide phosphorylation, read-out: SRC_IC50. The method, boiled down: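 Compounds were tested for blocking tyrosine phosphorylation of a biotinylated peptide substrate by recombinant human Src. Phosphorylated product was quantified by time-resolved fluorometry using europium cryptate and XL665 conjugates, and IC50 was calculated against the compound-free control.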

The target of assay [2] is T2, human Lck enzyme (Homo sapiens, UniProt P06239).
T2 construct: purchased Carna Biosciences, Inc. 08-170
Kind of assay: Lck enzyme inhibitory activity (time-resolved fluorometry, biotinylated peptide phosphorylation). The settings on record: biotinylated peptide phosphorylation, read-out: LCK_IC50. The method in brief:
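Readout pairs a europium cryptate-labelled anti-phosphotyrosine antibody with XL665-streptavidin, measured by time-resolved fluorescence. IC50 derived from percent inhibition against untreated controls.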

In assay [3] the target is T3, human Yes1 enzyme (Homo sapiens, UniProt P07947).
T3 construct: made in house
Kind of assay: Yes1 enzyme inhibitory activity (time-resolved fluorometry, biotinylated peptide phosphorylation). The settings on record: biotinylated peptide phosphorylation, read-out: YES_IC50. The method in brief:
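Inhibition was expressed against a compound-free control to give IC50, using TR-FRET read-out (Eu-cryptate anti-pTyr antibody, streptavidin-XL665).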

T2 sequence (P06239 whole entry): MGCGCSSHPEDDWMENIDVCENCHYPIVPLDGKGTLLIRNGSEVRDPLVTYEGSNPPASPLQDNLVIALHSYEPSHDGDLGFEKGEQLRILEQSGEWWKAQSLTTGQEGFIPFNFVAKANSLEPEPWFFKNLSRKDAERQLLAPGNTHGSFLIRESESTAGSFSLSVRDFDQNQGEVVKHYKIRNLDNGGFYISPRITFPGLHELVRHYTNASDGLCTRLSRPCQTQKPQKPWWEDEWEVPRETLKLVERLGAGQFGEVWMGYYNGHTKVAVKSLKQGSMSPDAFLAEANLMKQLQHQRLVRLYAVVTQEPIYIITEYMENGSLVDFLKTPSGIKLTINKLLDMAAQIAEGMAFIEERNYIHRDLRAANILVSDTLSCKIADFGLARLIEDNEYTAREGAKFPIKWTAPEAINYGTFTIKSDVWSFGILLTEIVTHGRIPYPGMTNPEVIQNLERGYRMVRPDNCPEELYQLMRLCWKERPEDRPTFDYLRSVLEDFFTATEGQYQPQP
T3 sequence (P07947 whole entry): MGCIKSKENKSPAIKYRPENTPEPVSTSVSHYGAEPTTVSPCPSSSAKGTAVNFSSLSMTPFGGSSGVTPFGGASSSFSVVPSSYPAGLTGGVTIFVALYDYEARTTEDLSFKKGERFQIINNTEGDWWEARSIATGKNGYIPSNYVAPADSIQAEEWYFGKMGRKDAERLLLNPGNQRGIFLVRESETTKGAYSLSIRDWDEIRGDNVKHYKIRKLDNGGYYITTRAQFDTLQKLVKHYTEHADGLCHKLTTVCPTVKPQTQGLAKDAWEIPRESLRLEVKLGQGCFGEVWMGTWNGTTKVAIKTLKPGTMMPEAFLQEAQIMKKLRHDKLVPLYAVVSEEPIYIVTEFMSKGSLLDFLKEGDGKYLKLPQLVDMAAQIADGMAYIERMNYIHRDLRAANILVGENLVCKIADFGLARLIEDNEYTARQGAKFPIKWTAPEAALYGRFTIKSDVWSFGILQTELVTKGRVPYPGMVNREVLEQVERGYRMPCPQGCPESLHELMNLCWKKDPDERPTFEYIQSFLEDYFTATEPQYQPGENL
T1 sequence (P12931 whole entry): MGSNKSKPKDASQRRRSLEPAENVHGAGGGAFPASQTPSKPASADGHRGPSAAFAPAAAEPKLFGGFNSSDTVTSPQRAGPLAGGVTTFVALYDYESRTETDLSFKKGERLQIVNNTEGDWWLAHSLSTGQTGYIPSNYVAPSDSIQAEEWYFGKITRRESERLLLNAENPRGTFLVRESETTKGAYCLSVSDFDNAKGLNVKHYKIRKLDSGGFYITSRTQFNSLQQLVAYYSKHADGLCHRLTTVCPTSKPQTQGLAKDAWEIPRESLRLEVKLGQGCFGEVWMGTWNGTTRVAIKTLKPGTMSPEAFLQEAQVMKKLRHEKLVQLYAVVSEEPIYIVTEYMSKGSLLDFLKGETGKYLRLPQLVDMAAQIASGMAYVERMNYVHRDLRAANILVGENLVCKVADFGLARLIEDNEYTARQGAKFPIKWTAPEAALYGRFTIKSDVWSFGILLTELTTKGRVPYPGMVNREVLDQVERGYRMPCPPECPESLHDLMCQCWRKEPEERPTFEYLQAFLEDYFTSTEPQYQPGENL

`Cc1cc2cc(C(=O)c3cnn(-c4cnc(Oc5ccccc5F)cc4C)c3N)[nH]c2cc1N1CCOCC1` [Example 4-2-123, [5-amino-1-[6-(2-fluorophenoxy)-4-methylpyridin-3-yl]pyrazol-4-yl]-(5-methyl-6-morpholin-4-yl-1H-indol-2-yl)methanone]: the IC50 in assay [1] is 37 nM; in assay [2] it was 5.8 nM; in assay [3] it was 1.9 nM.
The matching figures for `Cc1cc2cc(C(=O)c3cnn(-c4cnc(Oc5c(F)cccc5F)cc4C)c3N)[nH]c2cc1N1CCOCC1` [Example 4-2-124, [5-amino-1-[6-(2,6-difluorophenoxy)-4-methylpyridin-3-yl]pyrazol-4-yl]-(5-methyl-6-morpholin-4-yl-1H-indol-2-yl)methanone]: 34 nM, 6.9 nM and 4.1 nM.
Taken in the same sequence, the figures for `Cc1cc2cc(C(=O)c3cnn(-c4cnc(Oc5c(F)cccc5F)cc4C)c3N)[nH]c2cc1N1CCC(N2CCOCC2)CC1` [Example 4-2-125, [5-amino-1-[6-(2,6-difluorophenoxy)-4-methylpyridin-3-yl]pyrazol-4-yl]-[5-methyl-6-(4-morpholin-4-ylpiperidin-1-yl)-1H-indol-2-yl]methanone] were 28 nM, 2.6 nM and 2.4 nM.
The matching figures for `CCN(c1cc2[nH]c(C(=O)c3cnn(-c4cnc(Oc5c(F)cccc5F)cc4C)c3N)cc2cc1F)S(C)(=O)=O` [Example 4-2-126]: 13 nM, 2 nM and 1.3 nM.
For `Cc1cc(Oc2c(F)cccc2F)ncc1-n1ncc(C(=O)c2cc3cc(F)c(N(C4CCOCC4)S(C)(=O)=O)cc3[nH]2)c1N` [Example 4-2-127, N-[2-[5-amino-1-[6-(2,6-difluorophenoxy)-4-methylpyridin-3-yl]pyrazole-4-carbonyl]-5-fluoro-1H-indol-6-yl]-N-(oxan-4-yl)methanesulfonamide], the results for the IC50 in assay [1], in assay [2] and in assay [3] were 23 nM, 3.7 nM and 1.3 nM, respectively.
Taken in the same sequence, the figures for `Cc1cc(Oc2c(F)cccc2F)ncc1-n1ncc(C(=O)c2cc3cc(F)c(N(CCN4CCOCC4)S(C)(=O)=O)cc3[nH]2)c1N` [Example 4-2-128, N-[2-[5-amino-1-[6-(2,6-difluorophenoxy)-4-methylpyridin-3-yl]pyrazole-4-carbonyl]-5-fluoro-1H-indol-6-yl]-N-(2-morpholin-4-ylethyl)methanesulfonamide] were 8.6 nM, 2.7 nM and 1.2 nM.
Taken in the same sequence, the figures for `Cc1cc(Oc2ccccc2F)ncc1-n1ncc(C(=O)c2cc3cc(NS(C)(=O)=O)c(OCCN4CCOCC4)cc3[nH]2)c1N` [Example 4-2-129] were 3.2 nM, 1.4 nM and 0.59 nM.
Taken in the same sequence, the figures for `Cc1cc(Oc2ccccc2F)ncc1-n1ncc(C(=O)c2cc3cc(N(CCN4CCOCC4)S(C)(=O)=O)c(O)cc3[nH]2)c1N` [Example 4-2-130] were 34 nM, 4.5 nM and 1.4 nM.
Take `Cc1cc(Oc2cccc(F)c2F)cc(F)c1-n1ncc(C(=O)c2cc3cc(F)c(N)cc3[nH]2)c1N` [Example 4-3-001, {5-amino-1-[4-(2,3-difluorophenoxy)-2-fluoro-6-methylphenyl]pyrazol-4-yl}-(6-amino-5-fluoro-1H-indol-2-yl)methanone]: the IC50 was found to be 92 nM in assay [1], 24 nM in assay [2] and 4.3 nM in assay [3].
Taken in the same sequence, the figures for `Cc1cc(Oc2c(F)cccc2F)ncc1-n1ncc(C(=O)c2cc3cc(OC(F)F)c(C4CCNCC4)cc3[nH]2)c1N` [Example 4-4-001, (5-amino-1-(6-(2,6-difluorophenoxy)-4-methylpyridin-3-yl)-1H-pyrazol-4-yl)(5-(difluoromethoxy)-6-(piperidin-4-yl)-1H-indol-2-yl)methanone] were 21 nM, 8.2 nM and 6.3 nM.

For the origin of these results see US10479780B2, “Aminopyrazole derivatives” (Chugai Seiyaku Kabushiki Kaisha, priority 2015, dated 2019).
